# According to patent publication US9879032B2, “Pyridine compounds” (Daiichi Sankyo Company, Limited, priority 2015, dated 2018):
# pIC50: −log10 of the molar value.
# Target: human TNAP (Homo sapiens (Human), UniProt P05186)
# Test: Inhibitory test of TNAP activity (pNPP substrate, p-nitrophenol production)
# Assay type: biochemical
# Settings: inhibition of human TNAP activity, incubated at room temperature for 60 minutes
# Experimental: COS 1 cells (DS Pharma Biomedical Co., Ltd.) were transfected with human TNAP (OriGene Technologies, Inc.) using Lipofectamine LTX & Plus reagent (Invitrogen Corp.). On the next day, the medium was replaced with a fresh medium, and the cells were cultured in an incubator for 3 days. After 3 days, the culture supernatant was collected and concentrated by centrifugation at 5000 G for 30 minutes using Amicon 14, 10^4 cut (Merck Millipore). The concentrated culture supernatant was dialyzed against 5 L of 50 mM Tris/200 mM NaCl/1 mM MgCl2/20 μM ZnCl2 twice and used as an enzyme source (enzyme solution). The substrate pNPP (ProteoChem Inc.) was adjusted to 3.1 mM with Milli-Q water, and a solution of each test compound dissolved in dimethyl sulfoxide (DMSO; Wako Pure Chemical Industries, Ltd.) by 6 serial dilutions at a 5-fold common ratio from 100 μM, or DMSO was added thereto at a final concentration of 1% by volume. The enzyme solution adjusted to 2 μg/mL with an assay buffer (200 mM Tris/2 mM MgCl2/0.04 mM ZnCl2/0.01% Tween 20) was added in the same amount of the substrate solution and incubated at room temperature for 60 minutes. Then, the absorbance (ABS: 405 nm) was measured using a microplate reader (model plus 384, Molecular Devices, LLC), and the concentration of produced p-nitrophenol was calculated.
# Sequence of human TNAP (P05186 18-502): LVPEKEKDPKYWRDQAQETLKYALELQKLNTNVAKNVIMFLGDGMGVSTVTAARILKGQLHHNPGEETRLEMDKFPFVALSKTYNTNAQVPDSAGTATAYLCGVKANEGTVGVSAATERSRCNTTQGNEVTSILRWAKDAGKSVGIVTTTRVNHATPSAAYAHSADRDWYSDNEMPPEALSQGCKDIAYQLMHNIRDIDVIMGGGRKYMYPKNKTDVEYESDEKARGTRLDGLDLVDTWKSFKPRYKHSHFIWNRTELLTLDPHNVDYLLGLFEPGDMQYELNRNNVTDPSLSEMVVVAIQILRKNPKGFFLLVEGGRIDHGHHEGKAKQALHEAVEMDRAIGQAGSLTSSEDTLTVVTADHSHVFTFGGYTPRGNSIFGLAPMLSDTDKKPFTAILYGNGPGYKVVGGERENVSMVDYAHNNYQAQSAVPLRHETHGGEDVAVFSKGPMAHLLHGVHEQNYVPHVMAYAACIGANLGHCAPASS
row,pIC50,SMILES
1,8.42,"COc1ccc(OC)c(S(=O)(=O)Nc2cnc3c(c2)C(=O)N[C@@H](CO)CO3)c1 [Example 30, N-[(3S)-3-(Hydroxymethyl)-5-oxo-2,3,4,5-tetrahydropyrido[3,2-f][1,4]oxazepin-7-yl]-2,5-dimethoxybenzenesulfonamide]"
2,8.39,"O=C1N[C@@H](CO)COc2ncc(NS(=O)(=O)c3cc(F)ccc3OC(F)(F)F)cc21 [Example 32, 5-Fluoro-N-[(3S)-3-(hydroxymethyl)-5-oxo-2,3,4,5-tetrahydropyrido[3,2-f][1,4]oxazepin-7-yl]-2-(trifluoromethoxy)benzenesulfonamide]"
3,8.72,"COc1ccc(Cl)cc1S(=O)(=O)Nc1cnc2c(c1)C(=O)N[C@@H](CCO)CO2 [Example 33, 5-Chloro-N-[(3S)-3-(2-hydroxyethyl)-5-oxo-2,3,4,5-tetrahydropyrido[3,2-f][1,4]oxazepin-7-yl]-2-methoxybenzenesulfonamide]"
4,8.17,"COc1ccc(Cl)cc1S(=O)(=O)Nc1cnc2c(c1)C(=O)N[C@@H](CC(=O)N(C)C)CO2 [Example 34, 2-[(3S)-7-{[(5-Chloro-2-methoxyphenyl)sulfonyl]amino}-5-oxo-2,3,4,5-tetrahydropyrido[3,2-f][1,4]oxazepin-3-yl]-N,N-dimethylacetamide]"
5,7.36,"COc1ccc(Cl)cc1S(=O)(=O)Nc1cnc2c(c1)C(=O)N(c1ccccc1)CCO2 [Example 37, 5-Chloro-2-methoxy-N-(5-oxo-4-phenyl-2,3,4,5-tetrahydropyrido[3,2-f][1,4]oxazepin-7-yl)benzenesulfonamide]"
6,7.61,"COc1ccc(Cl)cc1S(=O)(=O)Nc1cnc2c(c1)C(=O)N(c1ccccn1)CCO2 [Example 38, 5-Chloro-2-methoxy-N-[5-oxo-4-(pyridin-2-yl)-2,3,4,5-tetrahydropyrido[3,2-f][1,4]oxazepin-7-yl]benzenesulfonamide]"
7,7.88,"COc1ccc(Cl)cc1S(=O)(=O)Nc1cnc2c(c1)C(=O)N(c1cccnc1)CCO2 [Example 39, 5-Chloro-2-methoxy-N-[5-oxo-4-(pyridin-3-yl)-2,3,4,5-tetrahydropyrido[3,2-f][1,4]oxazepin-7-yl]benzenesulfonamide]"

row,SMILES,pIC50
1,"COc1ccc(Cl)cc1S(=O)(=O)Nc1cnc2c(c1)C(=O)N[C@@H](CO)CO2 [Example 27, 5-Chloro-N-[(3S)-3-(hydroxymethyl)-5-oxo-2,3,4,5-tetrahydropyrido[3,2-f][1,4]oxazepin-7-yl]-2-methoxybenzenesulfonamide]",8.82
2,"COc1ccc(F)cc1S(=O)(=O)Nc1cnc2c(c1)C(=O)N[C@@H](CO)CO2 [Example 28, 5-Fluoro-N-[(3S)-3-(hydroxymethyl)-5-oxo-2,3,4,5-tetrahydropyrido[3,2-f][1,4]oxazepin-7-yl]-2-methoxybenzenesulfonamide]",8.44
3,"COc1ccc(Br)cc1S(=O)(=O)Nc1cnc2c(c1)C(=O)N[C@@H](CO)CO2 [Example 29, 5-Bromo-N-[(3S)-3-(hydroxymethyl)-5-oxo-2,3,4,5-tetrahydropyrido[3,2-f][1,4]oxazepin-7-yl]-2-methoxybenzenesulfonamide]",8.92
4,"O=C1N[C@@H](CO)COc2ncc(NS(=O)(=O)c3cc(Cl)ccc3OC(F)(F)F)cc21 [Example 31, 5-Chloro-N-[(3S)-3-(hydroxymethyl)-5-oxo-2,3,4,5-tetrahydropyrido[3,2-f][1,4]oxazepin-7-yl]-2-(trifluoromethoxy)benzenesulfonamide]",8.80
5,"COc1ccc(Cl)cc1S(=O)(=O)Nc1cnc2c(c1)C(=O)NC1(CC1)CO2 [Example 35, 5-Chloro-2-methoxy-N-(5′-oxo-4′,5′-dihydrospiro[cyclopropane-1,3′-pyrido[3,2-f][1,4]oxazepin]-7′-yl)benzenesulfonamide]",8.96
6,"COc1ccc(F)cc1S(=O)(=O)Nc1cnc2c(c1)C(=O)NC1(CC1)CO2 [Example 36, 5-Fluoro-2-methoxy-N-(5′-oxo-4′,5′-dihydrospiro[cyclopropane-1,3′-pyrido[3,2-f][1,4]oxazepin]-7′-yl)benzenesulfonamide]",8.66
